Reference: patent US20250099448A1, “HETEROCYCLIC COMPOUNDS” (Hoffmann-La Roche Inc., priority 2022, published 2025)

biological target: T1, MAGL protein (Homo sapiens, UniProt Q99685); test: 2-AG assay: MAGL inhibitory activity by hydrolysis of 2-arachidonoylglycerol to arachidonic acid, followed by mass spectrometry; format: biochemical; details: 8 μM 2-arachidonoylglycerol, 15 min preincubation, 30 min reaction at RT, RapidFire MS readout
T1 sequence (Q99685 1-303): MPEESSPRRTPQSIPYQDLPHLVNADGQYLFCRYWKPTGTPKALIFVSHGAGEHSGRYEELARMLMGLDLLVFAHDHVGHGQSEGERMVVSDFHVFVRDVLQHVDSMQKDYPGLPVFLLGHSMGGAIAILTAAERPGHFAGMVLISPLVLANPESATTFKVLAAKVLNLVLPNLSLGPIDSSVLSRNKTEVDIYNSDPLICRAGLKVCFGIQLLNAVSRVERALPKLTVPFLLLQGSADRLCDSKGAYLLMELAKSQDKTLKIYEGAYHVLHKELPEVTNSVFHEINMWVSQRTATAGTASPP
Procedure, shortened: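 Activity was measured by RapidFire SPE–triple-quad MS as the ratio of arachidonic acid to d8-arachidonic acid after 2-AG hydrolysis (8 μM substrate, 30 min, RT, acetonitrile quench). Compounds, tested from 12.5 μM down to […], were first preincubated 15 min with MAGL in TRIS/EDTA/Tween-20 buffer containing 2.5% DMSO.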

Compared with `O=C(N1CC2(CC(c3nnc(C4CC4)[nH]3)C2)C1)N1CC2(C1)CN(S(=O)(=O)c1ccc(OC(F)(F)F)cc1)C2` [compound 91], `O=C(N1CC2(CC(c3nnc(C4CC4)[nH]3)C2)C1)N1CC2(CN(Cc3ccc(C(F)(F)F)nn3)C2)C1` [compound 160] is 15-fold higher in IC50: 4.05 nM for the first, 61.3 nM for the second. The first is the more potent here.

Going from `Cn1ncc(CC2CC3(C2)CN(C(=O)N2CC4(CC(c5nc(C6(F)CC6)n[nH]5)C4)C2)C3)c1C(F)(F)F` [compound 475] to `O=C(N1CC2(CC(Cc3cnc(C(F)(F)F)cn3)C2)C1)N1CC2(CC(c3nc(C4(F)CC4)n[nH]3)C2)C1` [compound 424], the IC50 rises from 0.08 nM to 0.46 nM (5.8-fold). The first is the more potent here.

Compared with `COc1cc(COC2CCN(C(=O)N3CC4(CC(c5nc(C6CC6)n[nH]5)C4)C3)CC2)ccc1C(N)=O` [Example 980, 4-[[1-[6-(3-cyclopropyl-1H-1,2,4-triazol-5-yl)-2-azaspiro[3.3]heptane-2-carbonyl]-4-piperidyl]oxymethyl]-2-methoxy-benzamide], `O=C(N1CC2(CC(Oc3ccc(F)cn3)C2)C1)N1CC2(CC(c3nc(C4CC4)n[nH]3)C2)C1` [compound 434] is 460-fold lower in IC50: 2520 nM for the first, 5.52 nM for the second. The second is the more potent here.

First: COC(=O)C(C)(C)c1cccc(OC2CN(C(=O)N3CC4(CC(c5nnc(C6CC6)[nH]5)C4)C3)C2)c1 [compound 318]
Second: Cc1sc(-c2ccc(C3CN(C(=O)N4CC5(CC(c6nnc(C7CC7)[nH]6)C5)C4)C3)cc2)nc1C(C)O (centres unmarked) [Example 840, [6-(5-cyclopropyl-4H-1,2,4-triazol-3-yl)-2-azaspiro[3.3]heptan-2-yl]-[3-[4-[4-(1-hydroxyethyl)-5-methyl-thiazol-2-yl]phenyl]azetidin-1-yl]methanone]
The IC50 of the first is 2.5-fold higher: 7.3 nM for the first, 2.91 nM for the second.

First: CS(=O)(=O)c1cc(C(F)(F)F)ccc1CN1CC2(C1)CN(C(=O)N1CC3(CC(c4nc(C5CC5)n[nH]4)C3)C1)C2 [compound 889]
Second: N=S(=O)(c1cccc(C(F)(F)F)c1)C1CCC2(CC1)CN(C(=O)N1CC3(CC(c4nc(C5CC5)n[nH]4)C3)C1)C2 (centres unmarked) [Example 456]
The IC50 of the first is 3.2-fold lower: 2.74 nM for the first, 8.88 nM for the second. The first is the more potent here.

Compared with `O=C(N1CC(c2ccc(OCC3(C(F)(F)F)CC3)cc2)C1)N1CC2(CC(c3nnc(C4(O)CC4)[nH]3)C2)C1` [compound 375], `N=S(=O)(c1ccc(C2CN(C(=O)N3CC4(CC(c5nc(C6(O)CC6)n[nH]5)C4)C3)C2)cc1)C1CC1` (centres unmarked) [compound 496] is 20-fold higher in IC50: 1.89 nM for the first, 37 nM for the second.

Compared with `O=C(N1CC2(CC(c3nc(C4CC(F)(F)C4)n[nH]3)C2)C1)N1CC2(CN(Cc3cc(C(F)(F)F)no3)C2)C1` [compound 758], `N=S(=O)(c1ccc(CC2CC3(C2)CN(C(=O)N2CC4(CC(c5nc(C6CC(F)(F)C6)n[nH]5)C4)C2)C3)cc1)C(F)(F)F` (centres unmarked) [compound 603] is 4.2-fold lower in IC50: 145 nM for the first, 34.4 nM for the second. The second is the more potent here.

First: O=C(N1CC2(CC(c3nc(C4(O)CC4)n[nH]3)C2)C1)N1CC2(CC[C@@H](Cc3ccc(S(=O)(=O)C(F)(F)F)cc3)C2)C1 [compound 599]
Second: O=C(N1CC2(CCC(S(=O)(=O)c3cccc(C(F)(F)F)c3)CC2)C1)N1CC2(CC(c3nc(C4(O)CC4)n[nH]3)C2)C1 [compound 421]
The IC50 of the first is 60-fold lower: 0.84 nM for the first, 50.4 nM for the second.

Compared with `Cc1cc(C(C)(C)C)nn1-c1ccc(C2CN(C(=O)N3CC4(CC(c5nc(C6(O)CC6)n[nH]5)C4)C3)C2)cc1` [compound 820], `O=C(N1CC(C23CC(c4ccc(F)cc4)(C2)C3)C1)N1CC2(CC(c3nc(C4(O)CC4)n[nH]3)C2)C1` [compound 674] is 10-fold higher in IC50: 0.77 nM for the first, 8.08 nM for the second.

Compared with `O=C(N1CC2(CC(c3nnc(C4CC4)[nH]3)C2)C1)N1CC2(CN(Cc3cc(F)cc(F)c3)C2)C1` [compound 159], `O=C(N1CC2(CCC(Cc3ccc(C(F)(F)F)nc3)C2)C1)N1CC2(CC(c3nnc(C4CC4)[nH]3)C2)C1` (centres unmarked) [compound 152] is 14-fold lower in IC50: 6.08 nM for the first, 0.43 nM for the second.

First: O=C(N1CC2(CC(Cc3ccc(C(F)(F)F)cn3)C2)C1)N1CC2(CC(c3ncn[nH]3)C2)C1 [compound 987]
Second: O=C(N1CC2(CC(Cn3ccc(C(F)(F)F)n3)C2)C1)N1CC2(CC(c3nc(C4(O)CC4)n[nH]3)C2)C1 [compound 673]
The IC50 of the first is 1000-fold higher: 2060 nM for the first, 2 nM for the second.

`NC(=O)c1ccccc1-c1ccc(C2CN(C(=O)N3CC4(CC(c5nnc(C6CC6)[nH]5)C4)C3)C2)cc1` [compound 340] was tested, and the IC50 was 1.09 nM.
